Source: patent US20160257697A1, “THIOPHENE-SUBSTITUTED TETRACYCLIC COMPOUNDS AND METHODS OFUSE THEREOF FOR THE TREATMENT OF VIRAL DISEASES” (priority 2013, published 2016)

Tested on: HCV replicon 1A
Experiment: microbe, parasite or virus in culture
Format: cell-based, Hepatitis C virus (HCV)
Details: Hepatitis C virus, HCV replicon 1A; Replicon Assay A
Procedure: (§1) To measure cell-based anti-HCV activity of compounds of the present invention, two complimentary assays were employed using various replicons. In the first assay (“Replicon Assay A”), replicon cells were seeded at 2000 cells/well in 384-well 384-well flat bottom tissue culture treated clear bottom plate (Corning 3707) in the presence of the test compound. […] The final concentration of DMSO was 0.5%. Fetal bovine serum was 5%, in the assay media. Cells were harvested on day 3 by removing media and washing the cells with a suitable wash buffer. The cells are lysed with the addition of 1× Qiagen lysis buffer (Cat #1062731). The replicon RNA level was measured using real time PCR (TaqMan® EZ RT-PCR, Applied Biosystems 403028) with the following primers and probes: […]
(§2) Cyclophilin RNA was used as endogenous control and was amplified in the same reaction as NS5B (multiplex PCR). The real-time RT-PCR reactions were run on ABI PRISM 7900HT Sequence Detection System using the following program: 50° C. for 2 minutes, 60° C. for 30 minutes, 95° C. for 5 minutes, 40 cycles of 94° C. for 20 sec, 55° C. for 1 minutes.
(§3) The amount of HCV replicon RNA per cell is quantified using a linear regression curve for a known nanogram (ng) amount of HCV replicon total RNA. This is established by plotting the Cycle Threshold values (Ct) from the Neo probe and primer set versus the log (ng) for each HCV replicon total RNA standard. The amount of HCV RNA for each replicon sample is calculated by taking the sample's Ct value, minus the line intercept, divided by the slope of the line. Similarly, the amount of Cyclophilin mRNA per cell is also quantified using a linear regression curve for a known nanogram (ng) amount of HCV replicon total RNA. Again, this is established by plotting the Cycle Threshold values (Ct) from the Cyclophilin probe and primer set versus the log (ng) for each HCV replicon total RNA standard.
(§4) Data for replicons 1A, 1AY93H and 2B were obtained using Replicon Assay A and data for replicons 1AQ30D and 1B were obtained using Replicon Assay B.

For `COC(=O)NC(C(=O)N1CCC[C@H]1c1ncc(-c2ccc3c(c2)cc2n3C(c3ccc(C4CC4)s3)Oc3cc(-c4cnc([C@@H]5C[C@H]6C[C@H]6N5C(=O)[C@@H](NC(=O)OC)C(C)C)[nH]4)cc(F)c3-2)[nH]1)C1C[C@@H](C)O[C@@H](C)C1` (single isomer, unassigned) [Compound 536], the IC50 was 0.00272 nM.

Same assay, conditions: Hepatitis C virus, replicon 1A; Replicon Assay A

Point of comparison: `COC(=O)N[C@H](C(=O)N1CCC[C@H]1c1ncc(-c2cc(F)c3c(c2)OC(c2cc4c(s2)C(C)(C)CC4)n2c-3cc3cc(-c4cnc([C@@H]5CCCN5C(=O)[C@@H](NC(=O)OC)C(C)C)[nH]4)ccc32)[nH]1)C(C)C` (single isomer, unassigned) [Compound 391], IC50 0.0035 nM. Against it:
- COC(=O)NC(C(=O)N1CCC[C@H]1c1ncc(-c2ccc3c(c2)cc2n3C(c3ccc(C4CC4)s3)Oc3cc(-c4cnc([C@@H]5CCCN5C(=O)[C@@H](NC(=O)OC)C(C)C)[nH]4)cc(F)c3-2)[nH]1)C1CC2CCC(C1)O2 (single isomer, unassigned) [Compound 180] — within 1.5-fold, 0.0025 nM

Same assay, conditions: replicon 1A; Replicon Assay A

Point of comparison: `COC(=O)NC(C(=O)N1CCC[C@H]1c1ncc(-c2ccc3c(c2)cc2n3C(c3ccc(C4CC4)s3)Oc3cc(-c4cnc([C@@H]5CCCN5C(=O)[C@@H](NC(=O)OC)C(C)C)[nH]4)cc(F)c3-2)[nH]1)C1CN(C(=O)C2CC2)C1` (single isomer, unassigned) [Compound 268], IC50 0.045 nM. Against it:
- COC(=O)NC(C(=O)N1CCC[C@H]1c1ncc(-c2ccc3c(c2)cc2n3C(c3ccc(C4CC4)s3)Oc3cc(-c4cnc([C@@H]5CCCN5C(=O)[C@@H](NC(=O)OC)C(C)C)[nH]4)cc(F)c3-2)[nH]1)C1CCO[C@@H](C)C1 (single isomer, unassigned) [Compound 402] — 13-fold lower, 0.0034 nM
- COC(=O)NC(C(=O)N1CCC[C@H]1c1ncc(-c2cc(F)c3c(c2)OC(c2ccc(C4CC4)s2)n2c-3cc3cc(-c4cnc([C@@H]5CCCN5C(=O)C(NC(=O)OC)C5C[C@@H](C)O[C@@H](C)C5)[nH]4)ccc32)[nH]1)C1C[C@@H](C)O[C@@H](C)C1 (single isomer, unassigned) [Compound 302] — higher, > 13 nM
- CCc1ccc(C2Oc3cc(-c4cnc([C@@H]5CCCN5C(=O)C(NC(=O)OC)C5CCOC(C)(C)C5)[nH]4)cc(F)c3-c3cc4cc(-c5cnc([C@@H]6CCCN6C(=O)C(NC(=O)OC)C6CCOC(C)(C)C6)[nH]5)ccc4n32)s1 (single isomer, unassigned) [Compound 294] — higher, > 1.67 nM
- COC(=O)NC(C(=O)N1CCC[C@H]1c1ncc(-c2ccc3c(c2)cc2n3C(c3ccc(C(C)C)s3)Oc3cc(-c4cnc([C@@H]5CCCN5C(=O)[C@@H](NC(=O)OC)C(C)C)[nH]4)cc(F)c3-2)[nH]1)C1C[C@@H](C)O[C@@H](C)C1 (single isomer, unassigned) [Compound 233] — within 1.5-fold, 0.066 nM
- COC(=O)NC(C(=O)N1CCC[C@H]1c1ncc(-c2ccc3c(c2)cc2n3C(c3ccc(C4CC4)s3)Oc3cc(-c4cnc([C@@H]5CCCN5C(=O)[C@@H](NC(=O)OC)C(C)C)[nH]4)cc(F)c3-2)[nH]1)C1CN(C(=O)C2CC2)C1 (single isomer, unassigned) [Compound 270] — 14-fold higher, 0.62 nM
- CCc1ccc(C2Oc3cc(-c4cnc([C@@H]5CCCN5C(=O)C(NC(=O)OC)C5CCOC(C)(C)C5)[nH]4)cc(F)c3-c3cc4cc(-c5cnc([C@@H]6CCCN6C(=O)C(NC(=O)OC)C6CCOC(C)(C)C6)[nH]5)ccc4n32)s1 (single isomer, unassigned) [Compound 293] — higher, > 1.67 nM
- CCc1ccc(C2Oc3cc(-c4cnc([C@@H]5CCCN5C(=O)C(NC(=O)OC)C5CCOC(C)(C)C5)[nH]4)cc(F)c3-c3cc4cc(-c5cnc([C@@H]6CCCN6C(=O)[C@@H](NC(=O)OC)C(C)C)[nH]5)ccc4n32)s1 (single isomer, unassigned) [Compound 161] — within 1.5-fold, 0.0586 nM
- CCc1ccc(C2Oc3cc(-c4cnc([C@@H]5CCCN5C(=O)C(NC(=O)OC)C5C[C@@H](C)O[C@@H](C)C5)[nH]4)cc(F)c3-c3cc4cc(-c5cnc([C@@H]6CCCN6C(=O)[C@@H](NC(=O)OC)C(C)C)[nH]5)ccc4n32)s1 (single isomer, unassigned) [Compound 155] — 3.7-fold higher, 0.167 nM

Tested on: HCV replicon 2B
Experiment: microbe, parasite or virus in culture
Format: cell-based, Hepatitis C virus (HCV)
Details: Hepatitis C virus, read-out: 2B IC50 (nM), replicon 2B; Replicon Assay A
Procedure: as §1, §2, §3, §4

Compound `COC(=O)NC(C(=O)N1CCC[C@H]1c1ncc(-c2ccc3c(c2)cc2n3C(c3cc4c(s3)CCC4)Oc3cc(-c4cnc([C@@H]5CCCN5C(=O)[C@@H](NC(=O)OC)C(C)C)[nH]4)cc(F)c3-2)[nH]1)C1C[C@@H](C)O[C@@H](C)C1` (single isomer, unassigned) [Compound 204] has an IC50 of 0.26 nM.

Same assay, conditions: Hepatitis C virus, read-out: 2B IC50, HCV replicon 2B; Replicon Assay A

Point of comparison: `COC(=O)NC(C(=O)N1CCC[C@H]1c1ncc(-c2ccc3c(c2)cc2n3C(c3ccc(C4CC4)s3)Oc3cc(-c4cnc([C@@H]5CCCN5C(=O)[C@@H](NC(=O)OC)C(C)C)[nH]4)cc(C)c3-2)[nH]1)C1CCOC(C)(C)C1` (single isomer, unassigned) [Compound 565], IC50 0.17 nM. Against it:
- COC(=O)NC(C(=O)N1CCC[C@H]1c1ncc(-c2ccc3c(c2)cc2n3C(c3ccc(CC(F)(F)F)s3)Oc3cc(-c4cnc([C@@H]5CCCN5C(=O)[C@@H](NC(=O)OC)C(C)C)[nH]4)cc(F)c3-2)[nH]1)C1CCOC(C)(C)C1 (single isomer, unassigned) [Compound 425] — 15-fold lower, 0.011 nM

Same assay, conditions: read-out: 2B IC50; HCV replicon 2B; Replicon Assay A

Point of comparison: `CCCc1ccc(C2Oc3cc(-c4cnc([C@@H]5CCCN5C(=O)[C@@H](NC(=O)OC)C(C)C)[nH]4)cc(F)c3-c3cc4cc(-c5cnc([C@@H]6CCCN6C(=O)C(NC(=O)OC)C6CCOC(C)(C)C6)[nH]5)ccc4n32)s1` (single isomer, unassigned) [Compound 567], IC50 0.011 nM. Against it:
- COC(=O)NC(C(=O)N1CCC[C@H]1c1ncc(-c2ccc3c(c2)cc2n3C(c3ccc(C4CC4)s3)Oc3cc(-c4cnc([C@@H]5C[C@H]6C[C@H]6N5C(=O)[C@@H](NC(=O)OC)C(C)C)[nH]4)cc(F)c3-2)[nH]1)C1C[C@@H](C)O[C@@H](C)C1 (single isomer, unassigned) [Compound 536] — 2-fold higher, 0.0219 nM
- CCCc1ccc(C2Oc3cc(-c4cnc([C@@H]5CCCN5C(=O)[C@@H](NC(=O)OC)C(C)C)[nH]4)cc(F)c3-c3cc4cc(-c5cnc([C@@H]6C[C@H]7C[C@H]7N6C(=O)[C@@H](NC(=O)OC)C(C)C)[nH]5)ccc4n32)s1 (single isomer, unassigned) [Compound 562] — 69-fold higher, 0.754 nM
- C=C(C)C1Oc2cc(-c3cnc([C@@H]4CCCN4C(=O)[C@@H](N)C(C)C)[nH]3)cc(F)c2-c2cc3cc(-c4cnc([C@@H]5C[C@H]6C[C@H]6N5C(C)=O)[nH]4)ccc3n21 (single isomer, unassigned) [Compound 572] — 2.8-fold higher, 0.031 nM
- CCCc1ccc(C2Oc3cc(-c4cnc([C@@H]5CCCN5C(=O)[C@@H](NC(=O)OC)C(C)C)[nH]4)cc(F)c3-c3cc4cc(-c5cnc([C@@H]6C[C@H]7C[C@H]7N6C(=O)[C@@H](NC(=O)OC)C(C)C)[nH]5)ccc4n32)s1 (single isomer, unassigned) [Compound 561] — 21-fold higher, 0.23 nM
- C=C(C)C1Oc2cc(-c3cnc([C@@H]4CCCN4C(=O)[C@@H](N)C(C)C)[nH]3)cc(F)c2-c2cc3cc(-c4cnc([C@@H]5C[C@H]6C[C@H]6N5C(C)=O)[nH]4)ccc3n21 (single isomer, unassigned) [Compound 571] — 7.9-fold higher, 0.087 nM
- COC(=O)NC(C(=O)N1[C@@H]2C[C@@H]2C[C@H]1c1ncc(-c2ccc3c(c2)cc2n3C(c3cc4ccccc4s3)Oc3cc(-c4cnc([C@@H]5CCCN5C(=O)[C@@H](NC(=O)OC)C(C)C)[nH]4)cc(F)c3-2)[nH]1)C1C[C@@H](C)O[C@@H](C)C1 (single isomer, unassigned) [Compound 646] — 16-fold higher, 0.173 nM
- CCCc1ccc(C2Oc3cc(-c4cnc([C@@H]5CCCN5C(=O)[C@@H](NC(=O)OC)C(C)C)[nH]4)cc(F)c3-c3cc4cc(-c5cnc([C@@H]6CCCN6C(=O)C(NC(=O)OC)C6CCOC(C)(C)C6)[nH]5)ccc4n32)s1 (single isomer, unassigned) [Compound 566] — 28-fold higher, 0.31 nM

Same assay, conditions: read-out: 2B IC50; replicon 2B; Replicon Assay A

Point of comparison: `COC(=O)N[C@H](C(=O)N1CCC[C@H]1c1ncc(-c2cc(F)c3c(c2)OC(c2ccc(C4CC4(F)F)s2)n2c-3cc3cc(-c4cnc([C@@H]5CCCN5C(=O)[C@@H](NC(=O)OC)C(C)C)[nH]4)ccc32)[nH]1)C(C)C` (single isomer, unassigned) [Compound 116], IC50 1.85 nM. Against it:
- COC(=O)NC(C(=O)N1CCC[C@H]1c1ncc(-c2ccc3c(c2)cc2n3C(c3ccc(C4CC4)s3)Oc3cc(-c4cnc([C@@H]5CCCN5C(=O)[C@@H](NC(=O)OC)C(C)C)[nH]4)cc(F)c3-2)[nH]1)C1CCO[C@@H](C)C1 (single isomer, unassigned) [Compound 402] — 340-fold lower, 0.0054 nM
- COC(=O)N[C@H](C(=O)N1CCC[C@H]1c1ncc(-c2cc(F)c3c(c2)OC(c2ccc(C4CC4(F)F)s2)n2c-3cc3cc(-c4cnc([C@@H]5CCCN5C(=O)[C@@H](NC(=O)OC)C(C)C)[nH]4)ccc32)[nH]1)C(C)C (single isomer, unassigned) [Compound 119] — 25-fold lower, 0.073 nM
- COC(=O)N[C@H](C(=O)N1CCC[C@H]1c1ncc(-c2cc(F)c3c(c2)OC(c2ccc(C4CC4(F)F)s2)n2c-3cc3cc(-c4cnc([C@@H]5CCCN5C(=O)[C@@H](NC(=O)OC)C(C)C)[nH]4)ccc32)[nH]1)C(C)C (single isomer, unassigned) [Compound 117] — 66-fold lower, 0.028 nM
- COC(=O)NC(C(=O)N1[C@@H]2C[C@@H]2C[C@H]1c1ncc(-c2ccc3c(c2)cc2n3C(c3ccc(C(F)F)s3)Oc3cc(-c4cnc([C@@H]5CCCN5C(=O)[C@@H](NC(=O)OC)C(C)C)[nH]4)cc(F)c3-2)[nH]1)C1C[C@@H](C)O[C@@H](C)C1 (single isomer, unassigned) [Compound 285] — 2.3-fold lower, 0.79 nM
